Source: patent US5696151A, “Compounds useful for the inhibition of the replication of HIV-1 and HIV-1 mutants” (priority 1995, dated 1997)
In brackets after ≈: the same amount, converted by molar mass.

Key:
Type in all cases: cell-based
HIV-1(IIIB) = assay: Inhibition of HIV-1 induced syncytium formation in CEM cells, wild type; conditions: Human immunodeficiency virus 1, IIIB, CCRF-CEM, 96 h, Table 2B, WT = HIV-1(IIIB), day 4, averages of 2 to 3 independent experiments, read-out: Antiviral Activity of Comparative Compounds EC50, WT
Summary of the method: (§1)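 Syncytium inhibition assay in CEM cells infected with HIV-1(IIIB) or RT mutants, compound tested in 5-fold dilutions, scored by microscopy on day 4.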

HIV-1/106-Ala = assay: Inhibition of HIV-1 induced syncytium formation in CEM cells, RT mutant 106-Ala; conditions: Human immunodeficiency virus 1, CCRF-CEM, 96 h, Table 2B, day 4, averages of 2 to 3 independent experiments, read-out: Antiviral Activity of Comparative Compounds EC50, 106-Ala
Summary of the method: as §1

HIV-1/181-Cys = assay: Inhibition of HIV-1 induced syncytium formation in CEM cells, RT mutant 181-Cys; conditions: Human immunodeficiency virus 1, CCRF-CEM, 96 h, Table 2B, day 4, averages of 2 to 3 independent experiments, read-out: Antiviral Activity of Comparative Compounds EC50, 181-Cys
Summary of the method: as §1

in vitro = conditions: human, cem cells, CC50 (50% cytostatic concentration), Table 2B; CEM cell proliferation; averages of 2 to 3 independent experiments
Summary of the method: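 In CEM cells, the cytostatic value is the compound concentration giving 50% inhibition of cell proliferation. Parallel work used HIV-1(IIIB) and culture-selected resistant strains Lys-138, 181-Cys, 188-His and 188-Leu.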

HIV-1/188-Leu = assay: Inhibition of HIV-1 induced syncytium formation in CEM cells, RT mutant 188-Leu; conditions: Human immunodeficiency virus 1, CCRF-CEM, 96 h, Table 2B, day 4, averages of 2 to 3 independent experiments, read-out: Antiviral Activity of Comparative Compounds EC50, 188-Leu
Description: (§2) CEM cells were obtained from the American Tissue Cell Culture Collection (Rockville, Md.). HIV-1(IIIB) was originally obtained from the culture supernatant of persistently HIV-1-infected H9 cells and was provided by R. C. Gallo and M. Popovic (National Cancer Institute, National Institutes of Health, Bethesda, Md.). […] 67: 5353-5359 (1993); HIV-1/Lys-138 ("Lys-138") was selected for resistance against TSAO-m^3T as described in Balzarini et al, Virology 192: 246-253 (1993) and Balzarini et al, Proc. Nat. Acad. Sci. USA 90: 6952-6956 (1993); HIV-1/181-Cys ("181-Cys") was selected for resistance against pyridinone L-697,661 as described in Balzarini et al, Virology 192: 246-253 (1993); and HIV-1/188-His ("188-His") was selected for resistance against HEPT as described in Balzarini et al, Mol. Pharmocol. 44: 694-701 (1993). 188-His was then further converted to HIV-1/188-Leu "188-Leu") upon further passage in cell culture in the absence of the HEPT.
(§3) CEM cells were suspended at ≈300,000 cells per ml of culture medium and infected with approximately 100 CCID50 (CCID50 being the 50% cell culture infective dose) of HIV-1(IIIB) or one of the HIV-1 RT mutant strains described above. Then 100 μl of the infected cell suspensions was added to 200 μl microtiter plate wells containing 100 μl of appropriate serial (5-fold) dilutions of the test compounds. The inhibitory effect of the test compounds on HIV-1 induced syncytium formation in CEM cells was examined microscopically on day 4 post infection.

HIV-1/100-Ile = assay: Inhibition of HIV-1 induced syncytium formation in CEM cells, RT mutant 100-Ile; conditions: Human immunodeficiency virus 1, CCRF-CEM, 96 h, Table 2B, day 4, averages of 2 to 3 independent experiments, read-out: Antiviral Activity of Comparative Compounds EC50, 100-Ile
Summary of the method: as §1

HIV-1/Lys-138 = assay: Inhibition of HIV-1 induced syncytium formation in CEM cells, RT mutant 138-Lys; conditions: Human immunodeficiency virus 1, CCRF-CEM, 96 h, Table 2B, day 4, averages of 2 to 3 independent experiments, read-out: Antiviral Activity of Comparative Compounds EC50, 138-Lys
Summary of the method: as §1

HIV-1/103-Asn = assay: Inhibition of HIV-1 induced syncytium formation in CEM cells, RT mutant 103-Asn; conditions: Human immunodeficiency virus 1, CCRF-CEM, 96 h, Table 2B, day 4, averages of 2 to 3 independent experiments, read-out: Antiviral Activity of Comparative Compounds EC50, 103-Asn
Description: as §2, §3

Work on `CC(C)=CCOc1cc(NC(=O)c2ccsc2C)ccc1Cl` [Compound 27] yielded an EC50 (HIV-1(IIIB)) of 0.01 µg/mL (≈ 0.0298 µM), an EC50 (HIV-1/106-Ala) of 0.11 µg/mL (≈ 0.328 µM) and an EC50 (HIV-1/181-Cys) of 0.46 µg/mL (≈ 1.37 µM). It also gave a CC50 (in vitro) of 6 µg/mL (≈ 17.9 µM), an EC50 (HIV-1/188-Leu) greater than 2 µg/mL and an EC50 (HIV-1/100-Ile) of 0.36 µg/mL (≈ 1.07 µM). The EC50 (HIV-1/Lys-138) was 0.15 µg/mL (≈ 0.447 µM) and the EC50 (HIV-1/103-Asn) was 0.5 µg/mL (≈ 1.49 µM).

With `Cc1sccc1C(=S)Nc1ccc(Cl)c(OCC2CCCC2)c1` [Compound 28] the EC50 (HIV-1(IIIB)) was 0.029 µg/mL (≈ 0.0792 µM), the EC50 (HIV-1/106-Ala) was 0.23 µg/mL (≈ 0.628 µM) and the EC50 (HIV-1/181-Cys) was 0.5 µg/mL (≈ 1.37 µM). For the same compound, the CC50 (in vitro) was 4.3 µg/mL (≈ 11.8 µM), the EC50 (HIV-1/188-Leu) was greater than 2 µg/mL and the EC50 (HIV-1/100-Ile) was 0.22 µg/mL (≈ 0.601 µM). It also gave an EC50 (HIV-1/Lys-138) of 0.11 µg/mL (≈ 0.301 µM) and an EC50 (HIV-1/103-Asn) of 0.33 µg/mL (≈ 0.902 µM).

Work on `Cc1sccc1C(=S)Nc1ccc(Cl)c(OCC(C)(C)C)c1` [Compound 29] yielded an EC50 (HIV-1(IIIB)) of 0.14 µg/mL (≈ 0.396 µM), an EC50 (HIV-1/106-Ala) of 0.5 µg/mL (≈ 1.41 µM) and an EC50 (HIV-1/181-Cys) of 0.55 µg/mL (≈ 1.55 µM). It also gave a CC50 (in vitro) of 6.2 µg/mL (≈ 17.5 µM), an EC50 (HIV-1/188-Leu) greater than 2 µg/mL and an EC50 (HIV-1/100-Ile) of 0.5 µg/mL (≈ 1.41 µM). The EC50 (HIV-1/Lys-138) was 0.05 µg/mL (≈ 0.141 µM) and the EC50 (HIV-1/103-Asn) was 0.43 µg/mL (≈ 1.21 µM).

Compound `CC(C)=CCOc1cc(NC(=O)c2ccoc2C)ccc1Cl` [Compound 30] has an EC50 (HIV-1(IIIB)) of 0.015 µg/mL (≈ 0.0469 µM), an EC50 (HIV-1/106-Ala) of 0.34 µg/mL (≈ 1.06 µM) and an EC50 (HIV-1/181-Cys) of 0.65 µg/mL (≈ 2.03 µM). The CC50 (in vitro) was greater than 100 µg/mL, the EC50 (HIV-1/188-Leu) was greater than 2 µg/mL and the EC50 (HIV-1/100-Ile) was 1.27 µg/mL (≈ 3.97 µM). The EC50 (HIV-1/Lys-138) was 0.23 µg/mL (≈ 0.719 µM) and the EC50 (HIV-1/103-Asn) was 1.67 µg/mL (≈ 5.22 µM).

With `Cc1sccc1C(=O)Nc1ccc(Cl)c(C(=O)OC(C)C)c1` [Compound 31] the EC50 (HIV-1(IIIB)) was 0.09 µg/mL (≈ 0.266 µM), the EC50 (HIV-1/106-Ala) was 0.6 µg/mL (≈ 1.78 µM) and the EC50 (HIV-1/181-Cys) was 0.73 µg/mL (≈ 2.16 µM). The CC50 (in vitro) was 5.5 µg/mL (≈ 16.3 µM), the EC50 (HIV-1/188-Leu) was greater than 2 µg/mL and the EC50 (HIV-1/100-Ile) was no less than 2 µg/mL. The EC50 (HIV-1/Lys-138) was 0.93 µg/mL (≈ 2.75 µM) and the EC50 (HIV-1/103-Asn) was no less than 2 µg/mL.

For `Cc1sccc1C(=O)Nc1ccc(Cl)c(C(=O)OC(C(C)C)C(C)C)c1` [Compound 32], the EC50 (HIV-1(IIIB)) was 0.16 µg/mL (≈ 0.406 µM), the EC50 (HIV-1/106-Ala) was no less than 2 µg/mL and the EC50 (HIV-1/181-Cys) was 0.95 µg/mL (≈ 2.41 µM). The CC50 (in vitro) was 4.1 µg/mL (≈ 10.4 µM), the EC50 (HIV-1/188-Leu) was greater than 2 µg/mL and the EC50 (HIV-1/100-Ile) was no less than 2 µg/mL. For the same compound, the EC50 (HIV-1/Lys-138) was no less than 2 µg/mL and the EC50 (HIV-1/103-Asn) was no less than 2 µg/mL.

For `Cc1sccc1C(=O)Nc1ccc(Cl)c(OCCC(C)C)c1` [Compound 33], the EC50 (HIV-1(IIIB)) was 0.063 µg/mL (≈ 0.186 µM), the EC50 (HIV-1/106-Ala) was 0.65 µg/mL (≈ 1.92 µM) and the EC50 (HIV-1/181-Cys) was 1.07 µg/mL (≈ 3.17 µM). The CC50 (in vitro) was 7 µg/mL (≈ 20.7 µM), the EC50 (HIV-1/188-Leu) was greater than 2 µg/mL and the EC50 (HIV-1/100-Ile) was 0.95 µg/mL (≈ 2.81 µM). For the same compound, the EC50 (HIV-1/Lys-138) was 0.62 µg/mL (≈ 1.84 µM) and the EC50 (HIV-1/103-Asn) was 1 µg/mL (≈ 2.96 µM).

With `CC=CCSc1cc(NC(=O)c2ccsc2C)ccc1Cl` [Compound 34] the EC50 (HIV-1(IIIB)) was 0.08 µg/mL (≈ 0.237 µM), the EC50 (HIV-1/106-Ala) was 0.28 µg/mL (≈ 0.829 µM) and the EC50 (HIV-1/181-Cys) was 1.2 µg/mL (≈ 3.55 µM). For the same compound, the CC50 (in vitro) was 4.8 µg/mL (≈ 14.2 µM), the EC50 (HIV-1/188-Leu) was greater than 2 µg/mL and the EC50 (HIV-1/100-Ile) was 0.65 µg/mL (≈ 1.92 µM). It also gave an EC50 (HIV-1/Lys-138) of 0.5 µg/mL (≈ 1.48 µM) and an EC50 (HIV-1/103-Asn) of 0.8 µg/mL (≈ 2.37 µM).

`CC=CCSc1cc(NC(=O)c2ccoc2C)ccc1Cl` [Compound 35] gave an EC50 (HIV-1(IIIB)) of 0.16 µg/mL (≈ 0.497 µM), an EC50 (HIV-1/106-Ala) of 0.8 µg/mL (≈ 2.49 µM) and an EC50 (HIV-1/181-Cys) of 1.6 µg/mL (≈ 4.97 µM). For the same compound, the CC50 (in vitro) was 5.9 µg/mL (≈ 18.3 µM), the EC50 (HIV-1/188-Leu) was greater than 2 µg/mL and the EC50 (HIV-1/100-Ile) was 1.5 µg/mL (≈ 4.66 µM). For the same compound, the EC50 (HIV-1/Lys-138) was 0.7 µg/mL (≈ 2.18 µM) and the EC50 (HIV-1/103-Asn) was 0.55 µg/mL (≈ 1.71 µM).

Work on `CSc1sccc1C(=O)Nc1ccc(Cl)c(C=NOC(C)(C)C)c1` [Compound 36] yielded an EC50 (HIV-1(IIIB)) of 0.18 µg/mL (≈ 0.47 µM), an EC50 (HIV-1/106-Ala) of 0.85 µg/mL (≈ 2.22 µM) and an EC50 (HIV-1/181-Cys) of 1.6 µg/mL (≈ 4.18 µM). It also gave a CC50 (in vitro) of 7.8 µg/mL (≈ 20.4 µM), an EC50 (HIV-1/188-Leu) greater than 2 µg/mL and an EC50 (HIV-1/100-Ile) of 1.23 µg/mL (≈ 3.21 µM). For the same compound, the EC50 (HIV-1/Lys-138) was 0.85 µg/mL (≈ 2.22 µM) and the EC50 (HIV-1/103-Asn) was 1.2 µg/mL (≈ 3.13 µM).

For `Cc1occc1C(=O)Nc1ccc(Cl)c(OCCC(C)C)c1` [Compound 37], the EC50 (HIV-1(IIIB)) was 0.16 µg/mL (≈ 0.497 µM), the EC50 (HIV-1/106-Ala) was 1.3 µg/mL (≈ 4.04 µM) and the EC50 (HIV-1/181-Cys) was 1.73 µg/mL (≈ 5.38 µM). The CC50 (in vitro) was 5 µg/mL (≈ 15.5 µM), the EC50 (HIV-1/188-Leu) was greater than 2 µg/mL and the EC50 (HIV-1/100-Ile) was no less than 2 µg/mL. The EC50 (HIV-1/Lys-138) was 1.25 µg/mL (≈ 3.88 µM) and the EC50 (HIV-1/103-Asn) was no less than 2 µg/mL.

`Cc1c(C(=O)Nc2ccc(Cl)c(C=NOC(C)(C)C)c2)ccn1C` [Compound 38] showed an EC50 (HIV-1(IIIB)) of 0.08 µg/mL (≈ 0.23 µM), an EC50 (HIV-1/106-Ala) of 0.7 µg/mL (≈ 2.01 µM) and an EC50 (HIV-1/181-Cys) greater than 2 µg/mL. For the same compound, the CC50 (in vitro) was 5.5 µg/mL (≈ 15.8 µM), the EC50 (HIV-1/188-Leu) was greater than 2 µg/mL and the EC50 (HIV-1/100-Ile) was no less than 2 µg/mL. For the same compound, the EC50 (HIV-1/Lys-138) was no less than 2 µg/mL and the EC50 (HIV-1/103-Asn) was no less than 2 µg/mL.
